Reference: US20110130374A1, “Small Pyrimidine Derivatives and Methods of Use Thereof” (BIOSEARCH(2007) LTD., priority 2009, published 2011)

Columns and labels:
[1] = test system: A375 melanoma cells; experiment: Transwell cell migration assay, A375 melanoma cells; type: cell-based; conditions: Homo sapiens, A-375; A375 melanoma cells, Transwell 5 μm pore, 24 h, Example 3 (FIGS. 1A, 1E); read-out: IC50 in the migration assay
Description: A375 melanoma cells (CRL-1619, American Type Culture Collection (“ATCC”), Manassas Va., USA)) grown in RPMI medium supplement with 10% FBS were starved for 24 hours in FBS free medium. After starvation of 24 hr, 5×10^4 cells in FBS free medium were placed in the upper chamber of 24-well, Transwell apparatus (CORNING TRANS WELL® polycarbonate membrane inserts, 5 μm pore size) with solvent (DMSO/PEG400) or different concentrations of Compound 1 (PRT7000467), Compound 2 (PRT7041128), or Compound 3 (PRT7081582). Medium containing FBS and compounds was added to the bottom chamber. Twenty-four hours later the melanoma cells from the upper chamber were removed with a cotton swab. Cells that migrated to the lower side of the membrane were stained with Calcein-AM (Sigma) and images were taken with fluorescence microscope. The number of migrating cells was quantified by ImageJ software and the IC50 values were calculated using Prism software (Graphpad) (FIG. 1A,1E).
A375 (melanoma) (CRL-1619, ATCC, Manassas, Va., USA), A431 (melanoma) (CRL-2592, ATCC, Manassas, Va., USA), A2058 (melanoma) (CRL-11147, ATCC, Manassas, Va., USA), MDA-MB-231 (breast) (HTB-26, ATCC, Manassas, Va., USA), LS175T (colon) (ATCC, Manassas, Va., USA), HT29 (colon) (HTB-38, ATCC, Manassas, Va., USA), PC3 (prostate) (CRL-1435, ATCC, Manassas, Va., USA), Panc03.27 (pancreatic) (ATCC, Manassas, Va., USA), 4T1 (breast-mouse) (CRL-2539, ATCC, Manassas. Va., USA), D122 (lung-mouse) (the Weizmann Institute of Science), D122-luc (lung-mouse) (the Weizmann Institute of Science), and B16 F10.9 (melanoma-mouse) cells (Caliper Life Sciences, Hopkinton Mass.), were grown in RPMI medium supplemented with 10% FBS. HUVEC cells were grown in Endothelial Cell Growth Medium 2 and THP1 cells were grown in RPMI medium supplemented with 10% FBS, 2 mM L-Glutamine, 1.5 g/L sodium bicarbonate, 10 mM Hepes, 1 mM sodium pyruvate, 4.5 g/L glucose and 0.05 mM 2-mercaptoethanol. The cells were starved for 24 hours in medium without FBS. At the end of the starvation, 5×10^4 cells in medium without FBS were placed in the upper chamber of 24-well, Transwell apparatus (CORNING TRANSWELL® polycarbonate membrane inserts, 5 μm pore size for […] and THP1 cells and 8 μm pore size for all the other cells) with solvent (DMSO/PEG400) or different concentrations of compound 1 (PRT7000467). Medium with FBS and compounds was added to the bottom chamber. Twenty-four hours later the cells from the upper chamber were removed with a cotton swab. Cells that migrated to the lower side of the membrane were stained with Calcein-AM (Sigma) and images were taken with a fluorescence microscope. The number of migrating cells was quantified by ImageJ software and the IC50 values were calculated using Prism software (Graphpad).

[2] = test system: A375 cells; experiment: Cell viability, WST-1 reagent, A375 cells grown in two-dimension; type: cell-based; conditions: WST-1, 72 h post treatment
Description: Compound 1 (PRT7000467), Compound 2 (PRT7041128), and Compound 3 (PRT7081582) are not toxic to cells grown in two-dimension. A375 cells were cultured with RPMI and 10% FBS. The cells were treated with different concentrations of Compound 1 (PRT7000467) and Compound 2 (PRT7041128), then the viability of the cells was determined seventy-two hours post treatment using WST-1 reagent (Roche) (FIG. 1B)

`O=C(Nc1ccc(S(=O)(=O)Nc2ncccn2)cc1)/C(=C\c1cccs1)NC(=O)c1cccs1` [Compound 2] was tested. Which IC50 [1] did it give?
The IC50 was 9.2 µM.

What about the “toxicity to cells grown in two-dimension” value [2] of the same compound?
Its value is “not toxic”.
